Assays:
[1] = tested on: IL-6 secretion by U373 astrocytoma cells; test: IL-1β induced IL-6 secretion by U373 astrocytoma cells (ELISA); format: cell-based; settings: IL-1β 10 U/ml, 6 hours, inhibitor 1250, 2500 or 5000 nM
[2] = tested on: IL-6 secretion by human primary astrocytes; test: IL-1β induced IL-6 secretion by human primary astrocytes (ELISA); format: cell-based; settings: IL-1β 10 U/ml, 6 hours, inhibitor 1250, 2500 or 5000 nM
From the text: IL-1β has been implicated in both the initiation and propagation of neuroinflammatory changes seen in Alzheimer's disease patients. One of the main mechanisms of IL-1β is the induction of interleukin 6 (IL-6) secretion, which propagates the neuroinflammatory response in Alzheimer's disease patients. Using primary human adult astrocytes this inflammatory response as well as modulators (i.e. potential drugs for therapy) can be studied in vitro. […] In the presence of IL-1β (10 U/ml) these cells secrete IL-6 in the culture supernatant, which can be measured by ELISA. […] Cells were incubated with or without IL-1β (10 U/ml) for 6 hours in the presence of different concentration of IRAK1/4 inhibitor I (1250, 2500, or 5000 nM). IL-6 levels (pg/ml) in the culture supernatants were determined by ELISA. Shown are mean levels +/−S.D. of three replicate stimulations.

[3] = FIG. 1, listed as IRAK1/4 inhibitor

O=C(Nc1nc2ccccc2n1CCN1CCOCC1)c1cccc([N+](=O)[O-])c1 [IRAK1/4 inhibitor I]
IL-6 secretion in culture supernatant ([1]; FIG. 1): dose-dependently inhibits IL-6 secretion
IL-6 secretion in culture supernatant [1, 3]: reduced
IL-6 secretion in culture supernatant ([2]; FIG. 1): dose-dependently inhibits IL-6 secretion
IL-6 secretion in culture supernatant [2, 3]: reduced

From patent US20120035076A1, “IRAK KINASE FAMILY AS NOVEL TARGET AND BIOMARKER FOR ALZHEIMER” (Vereniging Voor Christelijk Hoger Onderwijs …, priority 2009, published 2012)
